Assay results reported in patent US20220304945A1, “METHODS OF TREATING METABOLIC SYNDROME RELATED CONDITIONS USING RETINOIC ACID RECEPTOR AGONISTS” (Cornell University, priority 2014, published 2022).

What was measured:
[1] = system: HF-fed C57/BL6 mice; test: Metabolic studies (body weight, GTT) in HF-fed wild type mice, 4 months; format: in vivo, mouse; settings: obese HF-fed mice, 3.0 mg/100 ml drinking water
Protocol: Mice, diet, and drug treatment. Dietary Obesity Studies: Wild type (wt) male C57/BL6 male mice were maintained on either a standard laboratory chow-fed diet (Con) with 13% kcal fat, (diet #5053, Lab Diet, Inc, St. Louis, Mo.) or a high fat, western style diet (HFD) with 45% kcals from fat, (diet #58126, Lab Diet, Inc., St. Louis, Mo.) for 4 months. […]
Metabolic Measurements-Glucose tolerance was performed using an intraperitoneal glucose tolerance test (GTT) as previously described (Trasino et al., Vitamin A Deficiency Causes Hyperglycemia and Loss of Pancreatic β-Cell Mass, J Biol Chem. 2014 Dec. 1. pii: jbc.M114.616763). […] Tail vein blood glucose was measured at 20, 40, 60 and 120 minutes after injection using a FreeStyle Lite Blood Glucose Monitoring System (Abbott Diabetes Care, Inc. Alameda, Calif.). To determine insulin secretion responses to glucose, serum fractions were isolated between 0-60 minutes post glucose injections and insulin concentrations were measured using an Ultrasensitive Insulin ELISA Kit (Alpco, Inc. Salem, N.H.). Random blood glucose measurements were taken from tail veins of 4 mice per group at 2-3 random time points daily Means are expressed as±standard error of the mean (S.E.M) and P-values were calculated using one-way analysis of variance followed by Bonferroni post-hoc analysis.

[2] = system: Ob/Ob and Db/Db mice; test: Metabolic studies (body weight, GTT, insulin secretion, ITT) in Ob/Ob and Db/Db mice, 8 weeks; format: in vivo, mouse; settings: genetically obese and diabetic Ob/Ob and Db/Db mice
[3] = target: T1, RARβ2 (Homo sapiens, UniProt P10826); settings: as described in Lund et al. 2005; cited from earlier work
T1 sequence (P10826 1-448 isoform P10826-2): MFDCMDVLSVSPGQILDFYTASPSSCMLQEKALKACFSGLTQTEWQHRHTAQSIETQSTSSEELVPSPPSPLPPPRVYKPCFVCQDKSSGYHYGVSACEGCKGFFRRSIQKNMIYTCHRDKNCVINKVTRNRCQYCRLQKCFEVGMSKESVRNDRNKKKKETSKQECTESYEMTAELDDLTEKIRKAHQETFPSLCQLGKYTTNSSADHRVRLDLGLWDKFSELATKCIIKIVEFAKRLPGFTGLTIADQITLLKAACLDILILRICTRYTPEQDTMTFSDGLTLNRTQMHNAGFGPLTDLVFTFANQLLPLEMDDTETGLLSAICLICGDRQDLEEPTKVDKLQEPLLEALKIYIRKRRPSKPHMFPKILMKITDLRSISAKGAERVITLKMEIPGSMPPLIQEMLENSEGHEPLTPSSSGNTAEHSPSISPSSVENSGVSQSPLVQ

[4] = system: HF-fed C57/BL6 mice; test: HF-fed mice treated 3 months: body weight, GTT, fasting glucose (Example 22); format: in vivo, mouse
Protocol: METHODS. Preparation of RARβ agonists solution. AC261066 and AC55649 were dissolved in dimethyl sulfoxide (DMSO) at the concentration of 3.0 mg/ml and diluted in the drinking water for mice to the final concentration of 3.0-mg/100 ml. Mice, diet, and drug treatments. Wt male C57/BL6 male mice were maintained on either a standard laboratory chow-fed diet (Con) with 13% kcal fat, (diet #5053, Lab Diet, Inc, St. Louis, Mo., [n=4]) or a high fat, western style diet (HFD) with 45% kcals from fat, (diet #58126, Lab Diet, Inc., St. Louis, Mo.) for 3 months. Two weeks after the start of the HFD treatment, the HFD group was further split into 3 groups for 3 months: i) HFD and drinking water containing 1% DMSO (n=5); ii) high fat diet (HFD) and drinking water containing 3.0 mg/100 ml AC261066, a specific RARβ agonist (n=5) or iii) HFD and drinking water containing 3.0 mg/100 ml AC55649, a specific RARβ agonist (n=4). After 3 months the mice were tested for glucose intolerance with an intra-peritoneal glucose tolerance test (GTT). Mice were then sacrificed by cervical dislocation. Blood and various tissue samples were harvested.
Glucose Tolerance Test (GTT). Glucose tolerance was performed using an intraperitoneal glucose tolerance test (GTT). Mice were fasted overnight (˜16 hrs) followed by intra-peritoneal injections (n=3-5 per group) of 50% glucose in PBS at 2.0 g of glucose/kg of body weight. Tail vein blood was collected at 15, 30, 45, 60, and 120 minutes post-injection for glucose measurements using a FreeStyle Lite Blood Glucose Monitoring System (Abbott Diabetes Care, Inc. Alameda, Calif.). Random and fasting blood glucose measurements were taken from tail veins of 4 mice per group at 2-3 random time points daily or just prior to GTT. Means are expressed as ±standard error of the mean (S.E.M) and P-values were calculated using one-way analysis of variance followed by Bonferroni post-hoc analysis. Grubbs' maximum normal residual test was used for detection of one or more outliers.

## CCCCCCCCc1ccc(-c2ccc(C(=O)O)cc2)cc1 [AC55649, 4′-Octyl-[1,1′-biphenyl]-4-carboxylic acid]
[1]
  body weights: significant reductions
[2]
  body weights: significant reductions
[3]
  isoform selectivity for the human RARβ2 receptors: highly isoform-selective agonists
[4]
  glucose tolerance and area under the curve glucose: improved
  overnight fasting glucose levels: significant reductions
[4]; 3.0 mg/100 ml drinking water
  decrease in body weights compared to HF-fed mice: ~10%
